Data from PubChem BioAssay AID1259407 (Chemical Carcinogenesis Research Information System (CCRIS), 2018).
Activity calls are given as the source filed them. The rule behind the calls is not given here.

Tested on: CCRIS mutagenicity, Ames/micronucleus/aberration tests
Assay: CCRIS mutagenicity studies
[1] = Test System: AMES SALMONELLA TYPHIMURIUM, Strain/Indicator: TA98, Metabolic Activation: HAMSTER, LIVER, S-9, AROCLOR 1254, Method: PREINCUBATION
[2] = Test System: AMES SALMONELLA TYPHIMURIUM, Strain/Indicator: TA98, Metabolic Activation: NONE, Method: PREINCUBATION
[3] = Test System: AMES SALMONELLA TYPHIMURIUM, Strain/Indicator: TA98, Metabolic Activation: RAT, LIVER, S-9, AROCLOR 1254, Method: PREINCUBATION
[4] = Test System: AMES SALMONELLA TYPHIMURIUM, Strain/Indicator: TA100, Metabolic Activation: HAMSTER, LIVER, S-9, AROCLOR 1254, Method: PREINCUBATION
[5] = Test System: AMES SALMONELLA TYPHIMURIUM, Strain/Indicator: TA100, Metabolic Activation: NONE, Method: PREINCUBATION
[6] = Test System: AMES SALMONELLA TYPHIMURIUM, Strain/Indicator: TA100, Metabolic Activation: RAT, LIVER, S-9, AROCLOR 1254, Method: PREINCUBATION
[7] = Test System: AMES SALMONELLA TYPHIMURIUM, Strain/Indicator: TA1535, Metabolic Activation: HAMSTER, LIVER, S-9, AROCLOR 1254, Method: PREINCUBATION
[8] = Test System: AMES SALMONELLA TYPHIMURIUM, Strain/Indicator: TA1535, Metabolic Activation: NONE, Method: PREINCUBATION
[9] = Test System: AMES SALMONELLA TYPHIMURIUM, Strain/Indicator: TA1535, Metabolic Activation: RAT, LIVER, S-9, AROCLOR 1254, Method: PREINCUBATION
[10] = Test System: AMES SALMONELLA TYPHIMURIUM, Strain/Indicator: TA1537, Metabolic Activation: HAMSTER, LIVER, S-9, AROCLOR 1254, Method: PREINCUBATION
[11] = Test System: AMES SALMONELLA TYPHIMURIUM, Strain/Indicator: TA1537, Metabolic Activation: NONE, Method: PREINCUBATION
[12] = Test System: AMES SALMONELLA TYPHIMURIUM, Strain/Indicator: TA1537, Metabolic Activation: RAT, LIVER, S-9, AROCLOR 1254, Method: PREINCUBATION
[13] = Test System: AMES SALMONELLA TYPHIMURIUM, Strain/Indicator: TA100, Metabolic Activation: NONE, Method: STANDARD PLATE
[14] = Test System: AMES SALMONELLA TYPHIMURIUM, Strain/Indicator: TA1537, Metabolic Activation: NONE, Method: STANDARD PLATE
[15] = Test System: AMES SALMONELLA TYPHIMURIUM, Strain/Indicator: TA98, Metabolic Activation: NONE, Method: STANDARD PLATE
[16] = Test System: AMES SALMONELLA TYPHIMURIUM, Strain/Indicator: TA98, Metabolic Activation: HAMSTER, LIVER, S-9, AROCLOR 1254 (10%), Method: PREINCUBATION
[17] = Test System: AMES SALMONELLA TYPHIMURIUM, Strain/Indicator: TA98, Metabolic Activation: RAT, LIVER, S-9, AROCLOR 1254 (10%), Method: PREINCUBATION
[18] = Test System: AMES SALMONELLA TYPHIMURIUM, Strain/Indicator: TA100, Metabolic Activation: HAMSTER, LIVER, S-9, AROCLOR 1254 (10%), Method: PREINCUBATION
[19] = Test System: AMES SALMONELLA TYPHIMURIUM, Strain/Indicator: TA100, Metabolic Activation: RAT, LIVER, S-9, AROCLOR 1254 (10%), Method: PREINCUBATION
[20] = Test System: AMES SALMONELLA TYPHIMURIUM, Strain/Indicator: TA1535, Metabolic Activation: HAMSTER, LIVER, S-9, AROCLOR 1254 (10%), Method: PREINCUBATION
[21] = Test System: AMES SALMONELLA TYPHIMURIUM, Strain/Indicator: TA1535, Metabolic Activation: RAT, LIVER, S-9, AROCLOR 1254 (10%), Method: PREINCUBATION
[22] = Test System: AMES SALMONELLA TYPHIMURIUM, Strain/Indicator: TA1537, Metabolic Activation: HAMSTER, LIVER, S-9, AROCLOR 1254 (10%), Method: PREINCUBATION
[23] = Test System: AMES SALMONELLA TYPHIMURIUM, Strain/Indicator: TA1537, Metabolic Activation: RAT, LIVER, S-9, AROCLOR 1254 (10%), Method: PREINCUBATION
[24] = Test System: AMES SALMONELLA TYPHIMURIUM, Strain/Indicator: TA102, Metabolic Activation: NONE, Method: STANDARD PLATE
[25] = Test System: MOUSE LYMPHOMA, Strain/Indicator: L5178Y (TK+/TK-), Metabolic Activation: NONE, Method: SUSPENSION/PLATE

CCN(CC)c1ccc2c(C)cc(=O)oc2c1
mutagenic call [1]: inactive; negative
mutagenic call [2]: inactive; negative
mutagenic call [3]: inactive; negative
mutagenic call [4]: inactive; negative
mutagenic call [5]: inactive; negative
mutagenic call [6]: inactive; negative
mutagenic call [7]: inactive; negative
mutagenic call [8]: inactive; negative
mutagenic call [9]: inactive; negative
mutagenic call [10]: inactive; negative
mutagenic call [11]: inactive; negative
mutagenic call [12]: inactive; negative

Cc1c2ccccc2c(CCl)c2ccc3ccccc3c12
mutagenic call [13]: active; positive
mutagenic call [14]: active; positive

CCc1c(N)ccc2ccccc12
mutagenic call [15]: inactive; negative
mutagenic call (Test System: AMES SALMONELLA TYPHIMURIUM, Strain/Indicator: TA98, Metabolic Activation: RAT LIVER S-9, AROCLOR, Method: STANDARD PLATE): active; positive
mutagenic call [13]: inactive; negative
mutagenic call (Test System: AMES SALMONELLA TYPHIMURIUM, Strain/Indicator: TA100, Metabolic Activation: RAT LIVER S-9, AROCLOR, Method: STANDARD PLATE): active; positive

O=C(Nc1ccc(Cl)cc1)Nc1ccc(Cl)c(Cl)c1
mutagenic call [16]: inactive; negative
mutagenic call [2]: inactive; negative
mutagenic call [17]: inactive; negative
mutagenic call [18]: inactive; negative
mutagenic call [5]: inactive; negative
mutagenic call [19]: inactive; negative
mutagenic call [20]: inactive; negative
mutagenic call [8]: inactive; negative
mutagenic call [21]: inactive; negative
mutagenic call [22]: inactive; negative
mutagenic call [11]: inactive; negative
mutagenic call [23]: inactive; negative

CCOC(=O)C(SP(=S)(OC)OC)c1ccccc1 (centres undefined)
mutagenic call [15]: inactive; negative
mutagenic call (Test System: AMES SALMONELLA TYPHIMURIUM, Strain/Indicator: TA98, Metabolic Activation: S-9, NADPH GENERATING SYSTEM, Method: STANDARD PLATE): inactive; negative
mutagenic call [24]: inactive; negative
mutagenic call (Test System: AMES SALMONELLA TYPHIMURIUM, Strain/Indicator: TA102, Metabolic Activation: S-9, NADPH GENERATING SYSTEM, Method: STANDARD PLATE): inactive; negative
mutagenic call (Test System: AMES SALMONELLA TYPHIMURIUM, Strain/Indicator: TA1535, Metabolic Activation: NONE, Method: STANDARD PLATE): inactive; negative
mutagenic call (Test System: AMES SALMONELLA TYPHIMURIUM, Strain/Indicator: TA1535, Metabolic Activation: S-9, NADPH GENERATING SYSTEM, Method: STANDARD PLATE): inactive; negative
mutagenic call [14]: inactive; negative
mutagenic call (Test System: AMES SALMONELLA TYPHIMURIUM, Strain/Indicator: TA1537, Metabolic Activation: S-9, NADPH GENERATING SYSTEM, Method: STANDARD PLATE): inactive; negative

Nc1c(N=Nc2ccc([N+](=O)[O-])cc2)c(S(=O)(=O)O)cc2cc(S(=O)(=O)O)c(N=Nc3ccccc3)c(O)c12
mutagenic call [15]: active; positive
mutagenic call (Test System: AMES SALMONELLA TYPHIMURIUM, Strain/Indicator: TA98, Metabolic Activation: RAT, LIVER, S-9, PHENOBARBITAL, Method: STANDARD PLATE): active; positive
mutagenic call [13]: inactive; negative
mutagenic call (Test System: AMES SALMONELLA TYPHIMURIUM, Strain/Indicator: TA100, Metabolic Activation: RAT, LIVER, S-9, PHENOBARBITAL, Method: STANDARD PLATE): active; positive

CC(Cl)C(=O)NCc1ccccc1 (centres undefined)
mutagenic call (Test System: AMES SALMONELLA TYPHIMURIUM, Strain/Indicator: TA100, Metabolic Activation: MOUSE, LIVER, S-9, AROCLOR 1254, Method: STANDARD PLATE): inactive; negative
mutagenic call [13]: inactive; negative

Nc1ccc(O)c(N)c1
mutagenic call (End Point: IN VITRO CHROMOSOMAL ABERRATIONS, Test System: CHINESE HAMSTER OVARY CELLS, Metabolic Activation: NONE): inactive; negative
mutagenic call (End Point: IN VITRO CHROMOSOMAL ABERRATIONS, Test System: CHINESE HAMSTER OVARY CELLS, Metabolic Activation: RAT, LIVER, S-9, AROCLOR 1254): inactive; negative
mutagenic call [16]: active; positive
mutagenic call [2]: inactive; negative
mutagenic call [17]: active; positive
mutagenic call [18]: inactive; negative
mutagenic call [5]: inactive; negative
mutagenic call [19]: inactive; negative
mutagenic call [20]: inactive; negative
mutagenic call [8]: inactive; negative
mutagenic call [21]: inactive; negative
mutagenic call [22]: inactive; negative
mutagenic call [11]: inactive; negative
mutagenic call [23]: inactive; negative
mutagenic call [25]: active; positive

C1CC2OC2CC1C1CO1 (centres undefined)
mutagenic call [1]: active; positive
mutagenic call [2]: active; positive
mutagenic call [3]: active; positive
mutagenic call [4]: active; positive
mutagenic call [5]: active; positive
mutagenic call [6]: active; positive
mutagenic call [7]: active; positive
mutagenic call [8]: active; positive
mutagenic call [9]: active; positive
mutagenic call [10]: active; positive
mutagenic call [12]: active; positive
mutagenic call [25]: active; positive

CC(=O)c1cc2c(cc1C)C(C)(C)C(C)C2C(C)C (centres undefined)
mutagenic call (Test System: AMES SALMONELLA TYPHIMURIUM, Strain/Indicator: TA97, Metabolic Activation: NONE, Method: STANDARD PLATE): inactive; negative
mutagenic call (Test System: AMES SALMONELLA TYPHIMURIUM, Strain/Indicator: TA97, Metabolic Activation: RAT LIVER S-9, AROCLOR 1254, Method: STANDARD PLATE): inactive; negative
mutagenic call [15]: inactive; negative
mutagenic call (Test System: AMES SALMONELLA TYPHIMURIUM, Strain/Indicator: TA98, Metabolic Activation: RAT LIVER S-9, AROCLOR 1254, Method: STANDARD PLATE): inactive; negative
mutagenic call [13]: inactive; negative
mutagenic call (Test System: AMES SALMONELLA TYPHIMURIUM, Strain/Indicator: TA100, Metabolic Activation: RAT LIVER S-9, AROCLOR 1254, Method: STANDARD PLATE): inactive; negative
mutagenic call [24]: inactive; negative
mutagenic call (Test System: AMES SALMONELLA TYPHIMURIUM, Strain/Indicator: TA102, Metabolic Activation: RAT LIVER S-9, AROCLOR 1254, Method: STANDARD PLATE): inactive; negative
